Data set [1] has as its system Staphylococcus aureus. In words: In vivo antibacterial activity against Staphylococcus aureus ATCC 25923 infected in BALB/c mouse model assessed as amelioration of pathological changes in lung at 5 to 10 mg/kg, ip measured after 7 hrs by H and E staining based analysis. The class given is functional, organism-based. The note with it: dose 5-10 mg/kg.
The subject of data set [2] is Pseudomonas aeruginosa. In words: Antibacterial activity against Pseudomonas aeruginosa ATCC 27853 assessed as reduction in survival bacterial growth in presence of chymotrypsin measured after 8 hrs by absorbance based analysis. In kind it is functional, organism-based.
In data set [3] the test system is Pseudomonas aeruginosa. In words: Antibacterial activity against Pseudomonas aeruginosa ATCC 27853 at sub-MIC measured after 20 days. In kind it is functional, organism-based. The conditions noted are these: time 20.0 day.
Data set [4] in a line: Toxicity in male BALB/c mouse assessed as edema in kidney at 46.88 mg/kg, ip administered as single dose by H and E staining based analysis. In kind it is organism-based. The note with it: in vivo.
The test system of data set [5] is Staphylococcus aureus. In words: Bactericidal activity against Staphylococcus aureus ATCC 25923 assessed as assessed as eradication of bacterial cells at 1/2 times MIC measured after 6 hrs by time killing analysis. The class given is functional, organism-based.
The nature of data set [6]: Cytotoxicity against human HK-2 cells measured after 24 hrs MTT assay. In kind it is toxicity, cell-based.
The test system of data set [7] is Staphylococcus aureus. In words: Antibacterial activity against Staphylococcus aureus ATCC 25923 pretreated with Mgcl2 followed by compound addition and measured after 2 hrs by broth microdilution method (reference value: 8 microM). In kind it is functional.
Data set [8] has as its system Staphylococcus aureus. In words: Antibacterial activity against Staphylococcus aureus ATCC 25923 at sub-MIC measured after 20 days. In kind it is functional, organism-based. The note with it: time 20.0 day.
Data set [9] relates to Staphylococcus aureus. In words: In vivo antibacterial activity against Staphylococcus aureus ATCC 25923 infected in BALB/c mouse model assessed as reduction in bacterial count in lung at 10 mg/kg, ip preadministered with compound for 1 hr followed by bacterial infection and measured after 6 hrs […]. The class given is functional, organism-based. The note with it: time 7.0 hrs.

Data set [10] has as its system Staphylococcus aureus. In words: Antibacterial activity against Staphylococcus aureus ATCC 25923 pretreated with Kcl followed by compound addition and measured after 2 hrs by broth microdilution method (reference value: 8 microM). The class given is functional.
Data set [11] has as its system Staphylococcus aureus. In words: Antibacterial activity against Staphylococcus aureus ATCC 25923 pretreated with 2.5% mouse serum followed by compound addition and measured after 1 hr by broth microdilution method (reference value: 8 microM). The class given is functional.
Data set [12] is described as follows: Half life in mouse serum by RP-HPLC analysis. In kind it is ADME, cell-free.
For data set [13], the system named is Pseudomonas aeruginosa. In words: Antibacterial activity against Pseudomonas aeruginosa ATCC 27853 assessed as reduction in survival bacterial growth in presence of trypsin measured after 8 hrs by absorbance based analysis. In kind it is functional, organism-based.
A further data set concerns Erythrocyte. In words: Hemolytic activity in mouse red blood cell assessed as hemolysis incubated for 1 hr. In kind it is toxicity, cell-based.
In data set [14] the test system is Staphylococcus aureus. In words: Antibacterial activity against Staphylococcus aureus ATCC 25923 pretreated with 20% mouse serum followed by compound addition and measured after 1 hr by broth microdilution method (reference value: 8 microM). In kind it is functional.
For data set [15], the system named is Pseudomonas aeruginosa. In words: Antibacterial activity against Pseudomonas aeruginosa ATCC 27853 assessed as fold increase in MIC pretreated with MgCl2 followed by compound addition and measured after 2 hrs by broth microdilution method. In kind it is functional.
Data set [16] relates to Pseudomonas aeruginosa. In words: Antibacterial activity against Pseudomonas aeruginosa ATCC 27853 assessed as fold increase in MIC pretreated with FeCl3 followed by compound addition and measured after 2 hrs by broth microdilution method. In kind it is functional.
Data set [17] deals with Pseudomonas aeruginosa. In words: Induction of morphological changes in Pseudomonas aeruginosa ATCC 27853 assessed as adhesion at 2 times MIC measured after 0.5 hrs by SEM based analysis. In kind it is functional, organism-based.
The subject of data set [18] is Pseudomonas aeruginosa. In words: Antibacterial activity against Pseudomonas aeruginosa ATCC 27853 assessed as fold increase in MIC pretreated with NaCl followed by compound addition and measured after 2 hrs by broth microdilution method. The class given is functional.
Data set [19] deals with Staphylococcus aureus. In words: Antibacterial activity against Staphylococcus aureus ATCC 25923 pretreated with Na-cl followed by compound addition and measured after 2 hrs by broth microdilution method (reference value: 8 microM). In kind it is functional.
The subject of data set [20] is Cell membrane. In words: Induction of outer membrane permeabilization in Pseudomonas aeruginosa ATCC 27853 assessed increase in fluorescence intensity at 1/2 to 4 times MIC measured upto 12 mins by fluorescence based NPN uptake assay. In kind it is cell membranes.
Data set [21] can be described thus: Toxicity in male BALB/c mouse assessed as survival rate at 90.9 mg/kg, ip measured after 6 days relative to control. The note with it: in vivo, time 6 day. The class given is organism-based.
Data set [22] is described as follows: Toxicity in male BALB/c mouse assessed as lethal dose administered as ip measured after 7 days. The conditions noted are these: male, BALB/c, in vivo, time 7 day. In kind it is organism-based.
In data set [23] the test system is Pseudomonas aeruginosa. In words: Induction of morphological changes in Pseudomonas aeruginosa ATCC 27853 assessed as aggregation at 2 times MIC measured after 0.5 hrs by SEM based analysis. In kind it is functional, organism-based.
Data set [24] deals with Pseudomonas aeruginosa. In words: Bactericidal activity against Pseudomonas aeruginosa ATCC 27853 assessed as assessed as eradication of bacterial cells at 1/2 to 1 times MIC measured after 1 hr by time killing analysis relative to control. The class given is functional.
Data set [25] concerns Pseudomonas aeruginosa. In words: Induction of morphological changes in Pseudomonas aeruginosa ATCC 27853 assessed as pore formation on bacterial surface at 2 times MIC measured after 0.5 hrs by SEM based analysis. The class given is functional, organism-based.
Data set [26] deals with Staphylococcus aureus. In words: Antibacterial activity against Staphylococcus aureus ATCC 25923 pretreated with Na-cl followed by compound addition and measured after 2 hrs by broth microdilution method (reference value: 64 microM). The class given is functional.
The subject of data set [27] is Staphylococcus aureus. In words: Antibacterial activity against Staphylococcus aureus ATCC 25923 pretreated with Zncl2 followed by compound addition and measured after 2 hrs by broth microdilution method (reference value: 64 microM). The class given is functional.
The test system of data set [28] is Pseudomonas aeruginosa. In words: Induction of morphological changes in Pseudomonas aeruginosa ATCC 27853 assessed as membrane rupture at 2 times MIC measured after 2 hrs by SEM based analysis. In kind it is functional, organism-based.
The subject of data set [29] is Staphylococcus aureus. In words: Antibacterial activity against Staphylococcus aureus ATCC 25923 assessed as fold increase in MIC pretreated with 2.5 to 20% mouse serum followed by compound addition and measured after 1 hr by broth microdilution method. The class given is functional.
Data set [30] concerns Staphylococcus aureus. In words: Antibacterial activity against Staphylococcus aureus ATCC 25923 pretreated with Kcl followed by compound addition and measured after 2 hrs by broth microdilution method (reference value: 64 microM). In kind it is functional.
In data set [31] the test system is Staphylococcus aureus. In words: Antibacterial activity against Staphylococcus aureus ATCC 25923 pretreated with 5% mouse serum followed by compound addition and measured after 1 hr by broth microdilution method (reference value: 16 microM). In kind it is functional, organism-based.
Data set [32] has as its system Staphylococcus aureus. In words: Antibacterial activity against Staphylococcus aureus ATCC 25923 pretreated with Mgcl2 followed by compound addition and measured after 2 hrs by broth microdilution method (reference value: 16 microM). In kind it is functional, organism-based.
The subject of data set [33] is Staphylococcus aureus. In words: Antibacterial activity against Staphylococcus aureus ATCC 25923 pretreated with 20% mouse serum followed by compound addition and measured after 6 hrs by broth microdilution method (reference value: 16 microM). The class given is functional, organism-based.
In data set [34] the test system is Cell membrane. In words: Induction of outer membrane permeabilization in Pseudomonas aeruginosa ATCC 27853 assessed increase in fluorescence intensity at 1/2 to 4 times MIC by fluorescence based NPN uptake assay. The class given is cell membranes. The note with it: time <= 12.0 min, TDE = time-dependent effect.
Data set [35] deals with Staphylococcus aureus. In words: Antibacterial activity against Staphylococcus aureus ATCC 25923 pretreated with ZnCl2 followed by compound addition and measured after 2 hrs by broth microdilution method (reference value: 16 microM). In kind it is functional, organism-based.
For data set [36], the system named is Staphylococcus aureus. In words: Antibacterial activity against Staphylococcus aureus ATCC 25923 pretreated with FeCl3 followed by compound addition and measured after 2 hrs by broth microdilution method (reference value: 16 microM). In kind it is functional, organism-based.

Values after ≈ are worked out from the molar mass of the structure shown. Active and inactive are the calls of the source. The calls are words filed in the database; no cut-off is given here. Bridge positions count the residues as written; N and C are the ends. Square brackets hold non-standard residues; d marks the D form. Peptide text beside a SMILES is read from it. * marks the point of attachment. ξ: configuration not given here. Hexanoyl(4ξ-Me) = CCC(C)CCC(=O)*; dOrn = NCCC[C@@H](N)C(=O)O; Orn = NCCC[C@H](N)C(=O)O

Consider `CCCCCCCCCC(=O)N[C@H](CCCN)C(=O)N[C@H](Cc1ccc(O)cc1)C(=O)N[C@H](Cc1c[nH]c2ccccc12)C(=O)N[C@H](CCCN)C(=O)N[C@@H](CCCN)C(=O)NCC(=O)N[C@H](CCCN)C(=O)N[C@@H](Cc1c[nH]c2ccccc12)C(=O)N[C@H](C(=O)N[C@H](C(=O)NCC(=O)N[C@@H](CO)C(=O)O)[C@@H](C)CC)[C@@H](C)O`, for which the result in the data set with Staphylococcus aureus [1], with Pseudomonas aeruginosa [2], in the data set on Pseudomonas aeruginosa [3], in the data set with Staphylococcus aureus [5], with Staphylococcus aureus [8] and in the data set with Staphylococcus aureus [9] was Active. For the same compound, the result in the data set with Pseudomonas aeruginosa [13], with Pseudomonas aeruginosa [17] and in the data set on Pseudomonas aeruginosa [23] was Active. Also, in [4], the Activity entry was “Toxic”. Also, the IC50 at 24 h in data set [6] turned out to be 21.1 µM. The MIC in the data set with Staphylococcus aureus [7] is 8 µM (≈ 12.6 µg/mL); in the data set with Staphylococcus aureus [10], 8 µM (≈ 12.6 µg/mL); in the data set on Staphylococcus aureus [11], 16 µM (≈ 25.3 µg/mL); in the data set with Staphylococcus aureus [14] it was greater than 128 µM; with Staphylococcus aureus [19] it was 16 µM (≈ 25.3 µg/mL). In data set [12], the half-life was 41 h. Besides, in the data set on Erythrocyte, the MHC stood at 128 µM. In addition, the “fold change (FC)” value in the data set with Pseudomonas aeruginosa [15], with Pseudomonas aeruginosa [16] and in the data set with Pseudomonas aeruginosa [18] was 8 throughout. Besides, in the data set with Cell membrane [20], the result was inactive. Further, the survival at 144 h in data set [21] was determined as 12.5%. Besides, the LD50 at 168 h in data set [22] worked out at 46.9 mg/kg.
On to `CCC(C)CCC(=O)N[C@H](CC(N)=O)C(=O)N[C@H](Cc1ccc(O)cc1)C(=O)N[C@H](Cc1c[nH]c2ccccc12)C(=O)N[C@H](CCCN)C(=O)N[C@@H](CCCN)C(=O)NCC(=O)N[C@H](CCCN)C(=O)N[C@@H](Cc1c[nH]c2ccccc12)C(=O)N[C@@H]1C(=O)N[C@@H]([C@@H](C)CC)C(=O)NCC(=O)N[C@@H](CO)C(=O)O[C@@H]1C` (stereo partly specified) ({Hexanoyl(4ξ-Me)}-[dN][dY][dW][dOrn][Orn]G[dOrn]WTIGS; ester 9-C), for which the result in the data set on Pseudomonas aeruginosa [2], with Pseudomonas aeruginosa [3], with Staphylococcus aureus [8], in the data set on Pseudomonas aeruginosa [13], with Pseudomonas aeruginosa [25] and with Pseudomonas aeruginosa [28] was Active. For the same compound, in the data set on Pseudomonas aeruginosa [24], the Activity came to 100%. This compound had an IC50 at 24 h in [6] of 36.5 µM. This compound also had a half-life in data set [12] of 4.47 h. For the same compound, in the data set on Erythrocyte, the MHC turned out to be 128 µM. For the same compound, the MIC with Staphylococcus aureus [26] is 128 µM (≈ 195 µg/mL); in the data set with Staphylococcus aureus [27] it was 64 µM (≈ 97.3 µg/mL); in the data set on Staphylococcus aureus [30] it was 64 µM (≈ 97.3 µg/mL). The “fold change (FC)” value in the data set on Pseudomonas aeruginosa [15] is 4; in the data set with Pseudomonas aeruginosa [16] it was 2; with Pseudomonas aeruginosa [18] it was 2; with Staphylococcus aureus [29] it was 2.
POLYMYXIN B: the result in the data set on Staphylococcus aureus [1], with Staphylococcus aureus [9], with Pseudomonas aeruginosa [25] and with Pseudomonas aeruginosa [28] was Active. For the same compound, the MIC was 16 µM with Staphylococcus aureus [31]; 8 µM in the data set with Staphylococcus aureus [32]; 16 µM with Staphylococcus aureus [33]; 32 µM in the data set with Staphylococcus aureus [35]; 8 µM with Staphylococcus aureus [36]. For the same compound, the Activity result with Cell membrane [34] was “Tde”.

Source of the values: ChEMBL document CHEMBL5512645, “A novel antimicrobial peptide with broad-spectrum and exceptional stability derived from the natural peptide Brevicidine” (Eur J Med Chem, 2024).
